In PMC10175918 (Communications Biology, 2023):
Like-named read-outs stand apart in the source and are kept apart here.

Key:
Assay in all cases: TGFα-shedding assay-based GPCR screening with chimeric Gα subunit proteins
Format in all cases: cell-based
348 GPCRs [1] = target: T1, 348 GPCRs (Homo sapiens, UniProt P30939); conditions: 5-HT1F (5-hydroxytryptamine receptor 1F); 10µM, Favipiravir 100μM
T1 construct: expressed in transfected cells; host or cells: HEK293A
T1 sequence (P30939 1-366): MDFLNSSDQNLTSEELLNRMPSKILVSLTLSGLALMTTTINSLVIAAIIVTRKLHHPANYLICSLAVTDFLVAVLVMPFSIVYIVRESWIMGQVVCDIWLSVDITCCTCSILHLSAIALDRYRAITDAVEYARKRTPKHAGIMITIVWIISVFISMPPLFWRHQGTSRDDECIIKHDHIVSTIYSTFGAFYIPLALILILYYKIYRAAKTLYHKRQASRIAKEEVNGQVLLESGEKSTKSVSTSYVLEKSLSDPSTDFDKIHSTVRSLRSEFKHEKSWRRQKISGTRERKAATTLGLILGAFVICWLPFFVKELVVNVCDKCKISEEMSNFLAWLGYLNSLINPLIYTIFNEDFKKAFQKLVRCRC

348 GPCRs [2] = target: T2, 348 GPCRs (Homo sapiens, UniProt P18825)
T2 construct: expressed in transfected cells; host or cells: HEK293A
T2 sequence (P18825 1-462): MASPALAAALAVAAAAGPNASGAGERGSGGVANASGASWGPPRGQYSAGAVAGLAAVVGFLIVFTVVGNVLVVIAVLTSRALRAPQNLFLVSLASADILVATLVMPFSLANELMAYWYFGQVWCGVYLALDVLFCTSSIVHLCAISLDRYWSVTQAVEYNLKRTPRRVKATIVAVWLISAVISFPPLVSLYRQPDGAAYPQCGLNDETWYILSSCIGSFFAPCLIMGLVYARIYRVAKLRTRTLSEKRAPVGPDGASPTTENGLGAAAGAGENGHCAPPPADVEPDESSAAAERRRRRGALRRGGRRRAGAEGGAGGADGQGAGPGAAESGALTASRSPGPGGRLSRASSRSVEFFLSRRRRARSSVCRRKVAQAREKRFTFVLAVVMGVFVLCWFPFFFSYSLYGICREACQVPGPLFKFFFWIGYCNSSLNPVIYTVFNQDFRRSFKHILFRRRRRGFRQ

348 GPCRs [3] = target: T3, 348 GPCRs (Homo sapiens, UniProt Q9NYW3); conditions: 10µM, Favipiravir 100μM
T3 construct: expressed in transfected cells; host or cells: HEK293A
T3 sequence (Q9NYW3 1-318): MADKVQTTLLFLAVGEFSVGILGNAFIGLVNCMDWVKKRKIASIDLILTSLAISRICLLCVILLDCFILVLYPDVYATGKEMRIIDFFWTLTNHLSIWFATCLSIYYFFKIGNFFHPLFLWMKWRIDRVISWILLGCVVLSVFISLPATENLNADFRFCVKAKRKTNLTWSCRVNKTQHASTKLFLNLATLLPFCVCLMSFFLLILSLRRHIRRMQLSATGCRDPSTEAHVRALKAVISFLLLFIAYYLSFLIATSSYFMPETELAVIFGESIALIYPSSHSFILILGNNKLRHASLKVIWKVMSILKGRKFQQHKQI

348 GPCRs [4] = target: T4, 348 GPCRs (Homo sapiens, UniProt Q9NYV9); conditions: 10µM, Favipiravir 100μM
T4 construct: expressed in transfected cells; host or cells: HEK293A
T4 sequence (Q9NYV9 1-303): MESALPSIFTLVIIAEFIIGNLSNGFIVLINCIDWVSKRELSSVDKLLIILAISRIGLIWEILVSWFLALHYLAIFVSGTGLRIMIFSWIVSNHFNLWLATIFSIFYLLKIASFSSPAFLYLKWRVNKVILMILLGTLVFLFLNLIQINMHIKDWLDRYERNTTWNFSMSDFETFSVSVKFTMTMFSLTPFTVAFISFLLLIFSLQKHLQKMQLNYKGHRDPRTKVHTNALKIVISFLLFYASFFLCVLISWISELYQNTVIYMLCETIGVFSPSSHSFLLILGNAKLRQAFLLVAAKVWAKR

348 GPCRs [5] = target: T5, 348 GPCRs (Homo sapiens, UniProt Q5T6X5); conditions: 10µM, Favipiravir 100μM
T5 construct: expressed in transfected cells; host or cells: HEK293A
T5 sequence (Q5T6X5 19-926): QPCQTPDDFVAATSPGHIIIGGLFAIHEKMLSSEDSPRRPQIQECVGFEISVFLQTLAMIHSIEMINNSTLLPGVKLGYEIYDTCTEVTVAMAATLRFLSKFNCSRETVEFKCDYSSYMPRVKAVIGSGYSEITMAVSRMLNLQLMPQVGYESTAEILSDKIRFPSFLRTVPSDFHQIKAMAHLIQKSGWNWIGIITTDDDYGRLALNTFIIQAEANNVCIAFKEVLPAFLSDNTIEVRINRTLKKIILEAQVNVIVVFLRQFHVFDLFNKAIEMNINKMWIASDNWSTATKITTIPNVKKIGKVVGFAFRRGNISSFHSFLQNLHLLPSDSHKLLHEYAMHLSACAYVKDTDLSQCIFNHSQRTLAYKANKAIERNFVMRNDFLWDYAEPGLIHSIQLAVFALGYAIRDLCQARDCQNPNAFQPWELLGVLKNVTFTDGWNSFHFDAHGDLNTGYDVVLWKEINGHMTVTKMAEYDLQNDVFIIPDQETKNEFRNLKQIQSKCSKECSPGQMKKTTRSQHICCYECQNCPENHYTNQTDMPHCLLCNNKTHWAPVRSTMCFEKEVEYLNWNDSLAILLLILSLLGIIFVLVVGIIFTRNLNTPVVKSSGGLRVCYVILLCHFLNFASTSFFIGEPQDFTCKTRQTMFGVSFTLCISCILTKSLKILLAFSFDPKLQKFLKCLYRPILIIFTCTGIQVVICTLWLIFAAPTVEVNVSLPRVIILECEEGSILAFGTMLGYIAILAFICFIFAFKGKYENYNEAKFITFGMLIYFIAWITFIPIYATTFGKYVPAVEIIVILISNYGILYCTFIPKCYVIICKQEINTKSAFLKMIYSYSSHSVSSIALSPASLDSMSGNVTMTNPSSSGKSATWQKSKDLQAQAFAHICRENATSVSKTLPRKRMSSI

[6] = GPCR α2C (adrenoceptor alpha 2C), read-out: % GPCR activation compared to TPA
[7] = TAS2R7 (taste receptor, type 2, member 7), read-out: % GPCR activation compared to TPA
[8] = TAS2R13 (taste receptor, type 2, member 13), read-out: % GPCR activation compared to TPA
[9] = GPRC6A (G protein-coupled receptor, family C, group 6, member A), read-out: % GPCR activation compared to TPA
[10] = read-out: % GPCR activation compared to TPA, GPCR α2C (adrenoceptor alpha 2C)
[11] = read-out: % GPCR activation compared to TPA, TAS2R7 (taste receptor, type 2, member 7)
[12] = read-out: % GPCR activation compared to TPA, TAS2R13 (taste receptor, type 2, member 13)
[13] = read-out: % GPCR activation compared to TPA, GPRC6A (G protein-coupled receptor, family C, group 6, member A)

| Compound | % GPCR activation compared to TPA (348 GPCRs [1]) [%] | activation at 10 µM (348 GPCRs [2]; [6]) [%] | activation at 10 µM (348 GPCRs [3]; [7]) [%] | activation at 100 µM (348 GPCRs [4]; [8]) [%] | activation at 10 µM (348 GPCRs [5]; [9]) [%] | activation at 10 µM (348 GPCRs [2]; [10]) [%] | activation at 10 µM (348 GPCRs [3]; [11]) [%] | activation at 100 µM (348 GPCRs [4]; [12]) [%] | activation at 10 µM (348 GPCRs [5]; [13]) [%] | activation at 100 µM (348 GPCRs [2]; GPCR α2C (adrenoceptor alpha 2C), 100μM, read-out: % GPCR activation compared to TPA) [%] |
| --- | --- | --- | --- | --- | --- | --- | --- | --- | --- | --- |
| N#C[C@@]1(c2ccc3c(N)ncnn23)O[C@H](CO)[C@@H](O)[C@H]1O [GS441524] | 0.3563 | 2.32 | -0.22 | 0.783 | -1.11 | – | – | – | – | – |
| CCC(CC)COC(=O)[C@H](C)N[P@](=O)(OC[C@H]1O[C@@](C#N)(c2ccc3c(N)ncnn23)[C@H](O)[C@@H]1O)Oc1ccccc1 [remdesivir] | -2.148 | – | – | – | – | 15.6 | 0.159 | 1.1 | -2.47 | – |
| CC(C)OC(=O)[C@H](C)N[P@](=O)(OC[C@H]1O[C@@H](n2ccc(=O)[nH]c2=O)[C@](C)(F)[C@@H]1O)Oc1ccccc1 [sofosbuvir] | -0.8157 | – | – | – | – | -4.42 | 0.253 | -2.09 | 0.803 | – |
| NC(=O)c1nc(F)cnc1O [favipiravir, 6-fluoro-3-hydroxy-2-pyrazinecarboxamide] | 1.629 | – | -0.16 | -1.06 | -1.55 | – | – | – | – | 7 |
| CC(C)C(=O)OC[C@H]1O[C@@H](n2ccc(NO)nc2=O)[C@H](O)[C@@H]1O [molnupiravir] | 0.7188 | -6.27 | -0.399 | -0.971 | -1.51 | – | – | – | – | – |
